ChEMBL document CHEMBL5579811, “Synthesis, SARS-CoV-2 main protease inhibition, molecular docking and in silico ADME studies of furanochromene-quinoline hydrazone derivatives” (Bioorg Med Chem Lett, 2024)

Target: Replicase polyprotein 1ab (Severe acute respiratory syndrome coronavirus 2, UniProt P0DTD1)
Assay: Inhibition of SARS-COV-2 main protease using fluorogenic substrate (DABCYL)-Lys-Thr- Ser-Ala-Val-Leu-Gln-Ser-Gly-Phe-Arg-Lys-Met-Glu-(EDANS)-NH2 measured every 5 mins for 50 mins by plate reader assay

SMILES | IC50 [µM]
CC1(C)C=Cc2c(ccc3cc(C(=O)N/N=C/c4ccc5cccc(O)c5n4)oc23)O1 | 183
CC1(C)C=Cc2c(ccc3cc(C(=O)N/N=C/c4ccnc5ccccc45)oc23)O1 | 129
CC1(C)C=Cc2c(ccc3cc(C(=O)N/N=C/c4cnc5ccccc5c4)oc23)O1 | 29.7
CC1(C)C=Cc2c(ccc3cc(C(=O)N/N=C/c4ccc5ncccc5c4)oc23)O1 | 34.1
CC1(C)C=Cc2c(ccc3cc(C(=O)N/N=C/c4cccc5cccnc45)oc23)O1 | 16.1
CC1(C)C=Cc2c(ccc3cc(C(=O)N/N=C/c4ccc5ccccc5n4)oc23)O1 | > 250
CC1(C)C=Cc2c(ccc3cc(C(=O)N/N=C/c4cccc5ncccc45)oc23)O1 | 43.1
